Reference: PubChem BioAssay AID1963865 (Molecular Pharmacology Branch, DTP, NCI, 2024)

Tested on: KRAS PDC multicell spheroid viability
Assay: Anticancer human tumor 825966-067-R-J1-PDC patient-derived colon carcinoma cell line growth inhibition [KRAS2]
Conditions: for IC50: curve of first compound; for viability, T/C: stronger effect = lower value
How it was run: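 Combination screen of spheroid viability in tumor-cell co-cultures with endothelial (HUVEC) and mesenchymal stem cell stroma. Each agent was tested in half-log dilutions, topping at clinical Cmax or at 10 microM without a known Cmax.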

[1] = second compound 0.1 µM, first compound 0.0316 µM
[2] = second compound 0.316 µM, first compound 0.0316 µM
[3] = second compound 1 µM, first compound 0.0316 µM
[4] = second compound 3.16 µM, first compound 0.0316 µM
[5] = second compound 10 µM, first compound 0.0316 µM
[6] = second compound 0.1 µM, first compound 0.1 µM
[7] = second compound 0.1 µM, first compound 0.316 µM
[8] = second compound 0.1 µM, first compound 1 µM
[9] = second compound 0.1 µM, first compound 3.16 µM
[10] = second compound 0.1 µM, first compound 10 µM
[11] = second compound 0.316 µM, first compound 0.1 µM
[12] = second compound 0.316 µM, first compound 0.316 µM
[13] = second compound 0.316 µM, first compound 1 µM
[14] = second compound 0.316 µM, first compound 3.16 µM
[15] = second compound 0.316 µM, first compound 10 µM
[16] = second compound 1 µM, first compound 0.1 µM
[17] = second compound 1 µM, first compound 0.316 µM
[18] = second compound 1 µM, first compound 1 µM
[19] = second compound 1 µM, first compound 3.16 µM
[20] = second compound 1 µM, first compound 10 µM
[21] = second compound 3.16 µM, first compound 0.1 µM
[22] = second compound 3.16 µM, first compound 0.316 µM
[23] = second compound 3.16 µM, first compound 1 µM
[24] = second compound 3.16 µM, first compound 3.16 µM
[25] = second compound 3.16 µM, first compound 10 µM
[26] = second compound 10 µM, first compound 0.1 µM
[27] = second compound 10 µM, first compound 0.316 µM
[28] = second compound 10 µM, first compound 1 µM
[29] = second compound 10 µM, first compound 3.16 µM
[30] = second compound 10 µM, first compound 10 µM
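Further: spheroids exposed to compounds for 7 days.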
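Wherever viability, T/C is given: 100% = DMSO vehicle control viability.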

**Q.** What does the source list for `CC(=O)Nc1cccc(-n2c(=O)n(C3CC3)c(=O)c3c(Nc4ccc(I)cc4F)n(C)c(=O)c(C)c32)c1` + CNCc1ccccc1-c1csc(C(C)Nc2nc(C)nc3cc(OC)c(OC)cc23)c1?
**A.** IC50 (second compound 0.1 µM): 23.9 nM; IC50 (second compound 0.316 µM): 27.5 nM; IC50 (second compound 1 µM): 17.1 nM; IC50 (second compound 3.16 µM): < 0.1 nM; IC50 (second compound 10 µM): < 0.1 nM; viability, T/C (second compound 0.1 µM, first compound 0.0001 µM): 89.5%; viability, T/C (second compound 0.1 µM, first compound 0.000316 µM): 107%; viability, T/C (second compound 0.1 µM, first compound 0.001 µM): 108%; viability, T/C (second compound 0.1 µM, first compound 0.00316 µM): 107%; viability, T/C (second compound 0.1 µM, first compound 0.01 µM): 92.9%; viability, T/C [1]: 35.7%; viability, T/C (second compound 0.316 µM, first compound 0.0001 µM): 88.3%; viability, T/C (second compound 0.316 µM, first compound 0.000316 µM): 97.9%; viability, T/C (second compound 0.316 µM, first compound 0.001 µM): 105%; viability, T/C (second compound 0.316 µM, first compound 0.00316 µM): 108%; viability, T/C (second compound 0.316 µM, first compound 0.01 µM): 106%; viability, T/C [2]: 42.9%; viability, T/C (second compound 1 µM, first compound 0.0001 µM): 96.1%; viability, T/C (second compound 1 µM, first compound 0.000316 µM): 98.2%; viability, T/C (second compound 1 µM, first compound 0.001 µM): 112%; viability, T/C (second compound 1 µM, first compound 0.00316 µM): 92.2%; viability, T/C (second compound 1 µM, first compound 0.01 µM): 78.5%; viability, T/C [3]: 18.1%; viability, T/C (second compound 3.16 µM, first compound 0.0001 µM): 28.4%; viability, T/C (second compound 3.16 µM, first compound 0.000316 µM): 51.9%; viability, T/C (second compound 3.16 µM, first compound 0.001 µM): 16.4%; viability, T/C (second compound 3.16 µM, first compound 0.00316 µM): 0.36%; viability, T/C (second compound 3.16 µM, first compound 0.01 µM): 0.15%; viability, T/C [4]: 0.26%; viability, T/C (second compound 10 µM, first compound 0.0001 µM): 0.16%; viability, T/C (second compound 10 µM, first compound 0.000316 µM): 0.14%; viability, T/C (second compound 10 µM, first compound 0.001 µM): 0.13%; viability, T/C (second compound 10 µM, first compound 0.00316 µM): 0.11%; viability, T/C (second compound 10 µM, first compound 0.01 µM): 0.12%; viability, T/C [5]: 0.17%

**Q.** For `CC1(C)CCC(CN2CCN(c3ccc(C(=O)NS(=O)(=O)c4ccc(NCC5CCOCC5)c([N+](=O)[O-])c4)c(Oc4cnc5[nH]ccc5c4)c3)CC2)=C(c2ccc(Cl)cc2)C1` + CNCc1ccccc1-c1csc(C(C)Nc2nc(C)nc3cc(OC)c(OC)cc23)c1, which IC50 (second compound 0.1 µM) is on record?
**A.** 2180 nM

**Q.** And the IC50 (second compound 0.316 µM)?
**A.** 2190 nM

**Q.** What about the IC50 (second compound 1 µM) of the same compound?
**A.** 2050 nM

**Q.** And the IC50 (second compound 3.16 µM)?
**A.** 1550 nM

**Q.** And the IC50 (second compound 10 µM)?
**A.** < 31.6 nM

**Q.** What about the viability, T/C [1] of the same compound?
**A.** 91.4%

**Q.** What about the viability, T/C [6] of the same compound?
**A.** 106%

**Q.** What about the viability, T/C [7] of the same compound?
**A.** 97.5%

**Q.** And the viability, T/C [8]?
**A.** 92.9%

**Q.** What about the viability, T/C [9] of the same compound?
**A.** 29.4%

**Q.** And the viability, T/C [10]?
**A.** 4.56%

**Q.** And the viability, T/C [2]?
**A.** 94.7%

**Q.** What about the viability, T/C [11] of the same compound?
**A.** 101%

**Q.** What about the viability, T/C [12] of the same compound?
**A.** 95.2%

**Q.** What about the viability, T/C [13] of the same compound?
**A.** 104%

**Q.** And the viability, T/C [14]?
**A.** 27.4%

**Q.** What about the viability, T/C [15] of the same compound?
**A.** 2.36%

**Q.** What about the viability, T/C [3] of the same compound?
**A.** 88.5%

**Q.** What about the viability, T/C [16] of the same compound?
**A.** 96.7%

**Q.** What about the viability, T/C [17] of the same compound?
**A.** 126%

**Q.** What about the viability, T/C [18] of the same compound?
**A.** 132%

**Q.** And the viability, T/C [19]?
**A.** 13.6%

**Q.** And the viability, T/C [20]?
**A.** 2.22%

**Q.** What about the viability, T/C [4] of the same compound?
**A.** 45.1%

**Q.** And the viability, T/C [21]?
**A.** 98.6%

**Q.** What about the viability, T/C [22] of the same compound?
**A.** 64.8%

**Q.** What about the viability, T/C [23] of the same compound?
**A.** 102%

**Q.** And the viability, T/C [24]?
**A.** 5.49%

**Q.** What about the viability, T/C [25] of the same compound?
**A.** 0.23%

**Q.** And the viability, T/C [5]?
**A.** 0.25%

**Q.** And the viability, T/C [26]?
**A.** 0.32%

**Q.** And the viability, T/C [27]?
**A.** 1.83%

**Q.** And the viability, T/C [28]?
**A.** 0.35%

**Q.** What about the viability, T/C [29] of the same compound?
**A.** 0.66%

**Q.** What about the viability, T/C [30] of the same compound?
**A.** 0.23%

**Q.** `COc1cc(Nc2ncc3c(n2)-c2ccc(Cl)cc2C(c2c(F)cccc2OC)=NC3)ccc1C(=O)O` + CC1OCC2(CCN(c3cnc(Sc4ccnc(N)c4Cl)c(N)n3)CC2)C1N was tested. Which IC50 (second compound 0.1 µM) did it give?
**A.** > 10000 nM

**Q.** What about the IC50 (second compound 0.316 µM) of the same compound?
**A.** > 10000 nM

**Q.** And the IC50 (second compound 1 µM)?
**A.** > 10000 nM

**Q.** What about the IC50 (second compound 3.16 µM) of the same compound?
**A.** > 10000 nM

**Q.** What about the IC50 (second compound 10 µM) of the same compound?
**A.** < 31.6 nM

**Q.** And the viability, T/C [1]?
**A.** 132%

**Q.** What about the viability, T/C [6] of the same compound?
**A.** 144%

**Q.** And the viability, T/C [7]?
**A.** 125%

**Q.** What about the viability, T/C [8] of the same compound?
**A.** 154%

**Q.** And the viability, T/C [9]?
**A.** 154%

**Q.** What about the viability, T/C [10] of the same compound?
**A.** 135%

**Q.** What about the viability, T/C [2] of the same compound?
**A.** 127%

**Q.** What about the viability, T/C [11] of the same compound?
**A.** 111%

**Q.** And the viability, T/C [12]?
**A.** 147%

**Q.** And the viability, T/C [13]?
**A.** 143%

**Q.** And the viability, T/C [14]?
**A.** 154%

**Q.** And the viability, T/C [15]?
**A.** 133%

**Q.** And the viability, T/C [3]?
**A.** 129%

**Q.** And the viability, T/C [16]?
**A.** 145%

**Q.** And the viability, T/C [17]?
**A.** 141%

**Q.** And the viability, T/C [18]?
**A.** 122%

**Q.** What about the viability, T/C [19] of the same compound?
**A.** 119%

**Q.** What about the viability, T/C [20] of the same compound?
**A.** 103%

**Q.** What about the viability, T/C [4] of the same compound?
**A.** 64.6%

**Q.** What about the viability, T/C [21] of the same compound?
**A.** 127%

**Q.** What about the viability, T/C [22] of the same compound?
**A.** 107%

**Q.** And the viability, T/C [23]?
**A.** 74.1%

**Q.** What about the viability, T/C [24] of the same compound?
**A.** 101%

**Q.** And the viability, T/C [25]?
**A.** 123%

**Q.** And the viability, T/C [5]?
**A.** 14.9%

**Q.** And the viability, T/C [26]?
**A.** 10.9%

**Q.** What about the viability, T/C [27] of the same compound?
**A.** 22%

**Q.** And the viability, T/C [28]?
**A.** 20.2%

**Q.** And the viability, T/C [29]?
**A.** 18.5%

**Q.** And the viability, T/C [30]?
**A.** 39.6%
